Patent publication US20220340875A1, “METHODS OF CULTURING AND/OR EXPANDING STEM CELLS AND/OR LINEAGE COMMITTED PROGENITOR CELLS USING AMIDO COMPOUNDS” (IDEAYA BIOSCIENCES, INC., priority 2018, published 2022)

Each compound was assayed against T1, hAhR (Homo sapiens, UniProt P35869) (assay: AhR DRE-luciferase reporter transcriptional assay, antagonist mode (TCDD-induced)). Settings: HEPG2 DRE-Luc cells, 3 nM TCDD, 24 hour incubation, relative IC50.
T1 construct: Stably integrated DRE-luciferase cell lines were generated by transducing the both cell lines with Cignal XRE luciferase reporter (Qiagen) lentiviral particles; endogenous in cells
T1 sequence (P35869 11-848): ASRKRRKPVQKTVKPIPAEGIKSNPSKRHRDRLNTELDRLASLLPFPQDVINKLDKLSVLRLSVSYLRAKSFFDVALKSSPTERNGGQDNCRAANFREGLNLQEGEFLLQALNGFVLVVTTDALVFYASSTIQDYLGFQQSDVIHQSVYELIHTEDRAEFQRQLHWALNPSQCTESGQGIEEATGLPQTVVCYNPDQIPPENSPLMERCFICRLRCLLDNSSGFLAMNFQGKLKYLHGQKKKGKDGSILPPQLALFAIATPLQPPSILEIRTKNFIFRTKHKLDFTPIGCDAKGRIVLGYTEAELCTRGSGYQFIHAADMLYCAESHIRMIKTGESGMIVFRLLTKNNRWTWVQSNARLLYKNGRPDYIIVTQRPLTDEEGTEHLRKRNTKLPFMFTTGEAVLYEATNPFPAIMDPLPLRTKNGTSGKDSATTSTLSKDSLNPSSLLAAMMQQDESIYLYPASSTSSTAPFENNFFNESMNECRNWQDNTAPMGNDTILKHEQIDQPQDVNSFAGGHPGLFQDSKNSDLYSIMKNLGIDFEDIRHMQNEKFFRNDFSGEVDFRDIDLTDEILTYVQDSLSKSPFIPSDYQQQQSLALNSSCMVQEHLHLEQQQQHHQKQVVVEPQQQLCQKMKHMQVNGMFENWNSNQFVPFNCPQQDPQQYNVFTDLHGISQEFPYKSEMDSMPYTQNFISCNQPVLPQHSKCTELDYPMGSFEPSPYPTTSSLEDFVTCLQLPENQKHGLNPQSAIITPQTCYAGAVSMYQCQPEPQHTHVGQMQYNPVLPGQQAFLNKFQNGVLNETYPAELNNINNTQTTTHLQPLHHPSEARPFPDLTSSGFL
Assay type: cell-based
Experimental: HEPG2 and HEPA1C1C7 cells were maintained in MEM and αMEM without nucleosides supplemented with 10% heat inactivated FBS respectively. Stably integrated DRE-luciferase cell lines were generated by transducing the both cell lines with Cignal XRE luciferase reporter (Qiagen) lentiviral particles according to the manufacturer protocol. For both cell lines stably integrated reporter cell lines were selected for the presence of 2 µg/mL puromycin. Following selection of stably integrated cell line pools, clonal cell lines were isolated by limiting dilution in 96-well plates. Transcriptional assays were performed by seeding 100 μL of cells at a density of 250,000 or 100,000 cells/mL, for HEPG2 and HEPA1C1C7 DRE-Luc cells respectively, into 96-well cell culture plates in OptiMEM supplemented with 0.5% heat inactivated FBS and allowed to attach overnight. For modulator assays, the compounds were added in a semi-log dose response using a D300e Digital Dispenser (Tecan) followed normalization with vehicle (DMSO). Immediately following compound addition 10 μL of 2,3,7,8-Tetrachlorodibenzo-p-dioxin (TCDD) was added to the cells to a final concentration of 3 nM or 0.3 nM for the HEPG2 and HEPA1C1C7 DRE-Luc cells respectively. Following 24 hour incubation the medium was removed and the cells were lysed in 25 μL of Reporter Lysis Buffer (Promega). Firefly luciferase activity was measured immediately following the addition of 50 μL Luciferase Assay Reagent (Promega). The percent maximal activity for each point was determined using the following equasion: (RLUsample-RLUvehicle−TCDD)/(RLUvehicle+TCDD RLUvehicle−TCDD)*100. The relative IC50, defined as the compound concentration required to reduce the TCDD induced response between the top and bottom plateau of each individual dose response curve by half, for each compound was determined using Prism 7 (GraphPad Software).
Cn1nccc1C(=O)Nc1ccc(-c2ncc3nc(C(F)(F)F)ccc3n2)cc1F [Example 137, N-(2-fluoro-4-(6-(trifluoromethyl)pyrido[3,2-d]pyrimidin-2-yl)phenyl)-1-methyl-1H-pyrazole-5-carboxamide] was tested, and the IC50 was less than 200 nM. Cc1cc(-c2ccc3cc(F)ccc3n2)ccc1NC(=O)C1CCOCC1 [Example 025, N-(4-(6-fluoroquinolin-2-yl)-2-methylphenyl)tetrahydro-2H-pyran-4-carboxamide] was tested, and the IC50 was 1000 to 10000 nM. Work on Cc1cc(-c2ncc3cc(C(F)(F)F)ccc3n2)ccc1NC(=O)c1cn(C)nc1C [Example 219, 1,3-dimethyl-N-(2-methyl-4-(6-(trifluoromethyl)quinazolin-2-yl)phenyl)-1H-pyrazole-4-carboxamide] yielded an IC50 of less than 200 nM. Cc1cc(-c2ccc3cc(C(F)(F)F)cc(C)c3n2)ccc1N(C)C(=O)c1ccnn1CCO [Example 201, 1-(2-hydroxyethyl)-N-methyl-N-(2-methyl-4-(8-methyl-6-(trifluoromethyl)-quinolin-2-yl)phenyl)-1H-pyrazole-5-carboxamide] gave an IC50 of less than 200 nM. In the case of CC(=O)Nc1ccc(-c2ccc3cc(F)ccc3n2)cc1C [Example 040, N-(4-(6-fluoroquinolin-2-yl)-2-methylphenyl)acetamide], the IC50 is reported as 200 to 500 nM. Cc1cc(-c2ccc3cc(F)ccc3n2)ccc1NC(=O)c1ccncc1 [Example 028, N-(4-(6-fluoroquinolin-2-yl)-2-methylphenyl)isonicotinamide] showed an IC50 of 500 to 1000 nM. With Cc1cc(-c2nc3ccc(C(F)(F)F)cc3s2)ccc1NC(=O)c1ccnn1C [Example 101, 1-methyl-N-(2-methyl-4-(6-(trifluoromethyl)benzo[d]thiazol-2-yl)phenyl)-1H-pyrazole-5-carboxamide] the IC50 was 200 to 500 nM. Compound Cc1cc(NC(=O)c2ccnn2C)cnc1-c1ccc2cc(F)ccc2n1 [Example 046, N-(6-(6-fluoroquinolin-2-yl)-5-methylpyridin-3-yl)-1-methyl-1H-pyrazole-5-carboxamide] has an IC50 of 500 to 1000 nM. Cc1cc(-c2ccc3ccccc3n2)ccc1NC(=O)c1ccnn1C [Example 070, 1-methyl-N-(2-methyl-4-(quinolin-2-yl)phenyl)-1H-pyrazole-5-carboxamide] was tested, and the IC50 was 500 to 1000 nM. Cc1cc(-c2ncc3nc(C(F)(F)F)cc(C)c3n2)ccc1N(C)C(=O)c1ccnn1CCOP(=O)(O)O [Example 194, 2-[5-[methyl([2-methyl-4-[8-methyl-6-(trifluoromethyl)pyrido[3,2-d]pyrimidin-2-yl]phenyl])carbamoyl]-1H-pyrazol-1-yl]ethyl disodium phosphate] was tested, and the IC50 was 1000 to 10000 nM. CNC(=O)N(C)c1ccc(-c2ncc3cc(C(F)(F)F)ccc3n2)cc1C [Example 127, 1,3-dimethyl-1-(2-methyl-4-(6-(trifluoromethyl)quinazolin-2-yl)phenyl)urea] showed an IC50 of less than 200 nM. With Cc1cc(-c2ncc3cc(C(F)(F)F)ccc3n2)ccc1N(C)C(=O)c1cnn[nH]1 [Example 146, N-methyl-N-(2-methyl-4-(6-(trifluoromethyl)quinazolin-2-yl)phenyl)-1H-1,2,3-triazole-5-carboxamide] the IC50 was 1000 to 10000 nM. Cc1cc(-c2ccc3cncc(C)c3n2)ccc1NC(=O)c1ccnn1C [Example 059, 1-methyl-N-(2-methyl-4-(8-methyl-1,6-naphthyridin-2-yl)phenyl)-1H-pyrazole-5-carboxamide] was tested, and the IC50 was 200 to 500 nM. Cc1cc(-c2ccc3cncc(Cl)c3c2)ccc1NC(=O)c1ccnn1C [Example 060, N-(4-(4-chloroisoquinolin-6-yl)-2-methylphenyl)-1-methyl-1H-pyrazole-5-carboxamide] gave an IC50 of 200 to 500 nM. In the case of Cc1cc(-c2ncc3cc(C(F)(F)F)ccc3n2)ccc1NC(=O)c1ccncc1 [Example 115, N-(2-methyl-4-(6-(trifluoromethyl)quinazolin-2-yl)phenyl)isonicotinamide], the IC50 is reported as less than 200 nM. Cc1cc(-c2ccc3nncc(C)c3c2)ccc1NC(=O)c1ccnn1C [Example 062, 1-methyl-N-(2-methyl-4-(4-methylcinnolin-6-yl)phenyl)-1H-pyrazole-5-carboxamide] gave an IC50 of 1000 to 10000 nM. Cc1cc(-c2ncc3cc(C(F)(F)F)ccc3n2)ccc1N(C)C(=O)c1ncc[nH]1 [Example 132, N-methyl-N-(2-methyl-4-(6-(trifluoromethyl)quinazolin-2-yl)phenyl)-1H-imidazole-2-carboxamide] was tested, and the IC50 was less than 200 nM. Work on CN(C(=O)c1ccnn1C)c1ccc(-c2ncc3cc(C(F)(F)F)ccc3n2)cc1 [Example 218, N,1-dimethyl-N-(4-(6-(trifluoromethyl)quinazolin-2-yl)phenyl)-1H-pyrazole-5-carboxamide] yielded an IC50 of less than 200 nM. For Cc1cc(-c2ncc3cc(C(F)(F)F)cc(C)c3n2)ccc1NC(=O)c1ccnn1C [Example 110, 1-methyl-N-(2-methyl-4-(8-methyl-6-(trifluoromethyl)quinazolin-2-yl)phenyl)-1H-pyrazole-5-carboxamide], the IC50 was less than 200 nM. Compound Cc1cc(-c2ncc3nc(C(F)(F)F)cc(C)c3n2)ccc1N(C)C(=O)c1ccnn1CC(C)O (centres unmarked) [Example 192, 1-(2-hydroxypropyl)-N-methyl-N-(2-methyl-4-(8-methyl-6-(trifluoromethyl)pyrido[3,2-d]pyrimidin-2-yl)phenyl)-1H-pyrazole-5-carboxamide] has an IC50 of less than 200 nM. With Cc1cc(-c2ccc3cc(F)ccc3n2)ccc1NC(=O)c1ccccc1 [Example 023, N-(4-(6-fluoroquinolin-2-yl)-2-methylphenyl)benzamide] the IC50 was 500 to 1000 nM. In the case of Cc1cc(-c2ncc3cc(C(F)(F)F)cc(C)c3n2)ccc1N(C)C(=O)c1ccnn1C [Example 111, N,1-dimethyl-N-(2-methyl-4-(8-methyl-6-(trifluoromethyl)quinazolin-2-yl)phenyl)-1H-pyrazole-5-carboxamide], the IC50 is reported as less than 200 nM. Cc1cc(-c2ncc3nc(C(F)(F)F)ccc3n2)ccc1N(C)C(=O)c1ccnn1C [Example 136, N,1-dimethyl-N-(2-methyl-4-(6-(trifluoromethyl)pyrido[3,2-d]pyrimidin-2-yl)phenyl)-1H-pyrazole-5-carboxamide] was tested, and the IC50 was less than 200 nM. With Cc1cc(-c2nc3ccc(F)cc3s2)ccc1NC(=O)c1ccnn1C [Example 098, N-(4-(6-fluorobenzo[d]thiazol-2-yl)-2-methylphenyl)-1-methyl-1H-pyrazole-5-carboxamide] the IC50 was 1000 to 10000 nM. In the case of Cc1cc(-c2ccc3cc(Br)ccc3n2)ccc1NC(=O)c1ccnn1C [Example 064, N-(4-(6-bromoquinolin-2-yl)-2-methylphenyl)-1-methyl-1H-pyrazole-5-carboxamide], the IC50 is reported as 200 to 500 nM. Compound COc1cc(C(=O)N(C)c2ccc(-c3ncc4cc(C(F)(F)F)ccc4n3)cc2C)ccn1 [Example 143, 2-Methoxy-N-methyl-N-(2-methyl-4-(6-(trifluoromethyl)quinazolin-2-yl)phenyl)isonicotinamide] has an IC50 of less than 200 nM. Compound Cc1cc(-c2ncc3cc(C(F)(F)F)ccc3n2)ccc1N(C)C(=O)c1nnn[nH]1 [Example 133, N-methyl-N-(2-methyl-4-(6-(trifluoromethyl)quinazolin-2-yl)phenyl)-1H-tetrazole-5-carboxamide] has an IC50 of 1000 to 10000 nM. Cc1cc(-c2ccc3cc(C(F)(F)F)ccc3n2)cc(F)c1NC(=O)c1ccnn1C [Example 008, N-(2-fluoro-6-methyl-4-(6-(trifluoromethyl)quinolin-2-yl)phenyl)-1-methyl-1H-pyrazole-5-carboxamide] gave an IC50 of less than 200 nM. Work on Cc1cc(-c2ncc3cc(C(F)(F)F)ccc3n2)ccc1N(C)C(=O)c1ccnn1CCN1CCOCC1 [Example 157, N-methyl-N-(2-methyl-4-(6-(trifluoromethyl)quinazolin-2-yl)phenyl)-1-(2-morpholinoethyl)-1H-pyrazole-5-carboxamide] yielded an IC50 of less than 200 nM.
